Test results from patent publication US20250099383A1, “COMPOSITIONS AND METHODS FOR DELIVERY OF NUCLEIC ACIDS” (Poseida Therapeutics, Inc., priority 2022, published 2025).

Columns and labels:
liver cells = experiment: In vivo LNP delivery of firefly luciferase mRNA to liver, bioluminescent imaging (BLI); parameters: species or system BALB/C mice; settings: 0.5 mg/kg fLuciferase mRNA i.v., BLI at 4 hr; for Ave flux (p/s) n = 3: adult female BALB/C mice, LNP as in Example 66
Experimental: Adult female BALB/C mice (n=3/group) were intravenously administered 0.5 mg/kg of 5′-CleanCap-fLuciferase mRNA (TriLink Biotech) formulated with LNP compositions as described in Example 66. One group of mice was treated with vehicle (PBS, Thermo Fisher Scientific, USA) as a negative control.
The location and extent of luciferase expression in treated and control mice were determined at 4 hr by bioluminescent imaging (BLI) of anesthetized mice using an IVIS Lumina in vivo imaging system (Perkin Elmer) according to the manufacturer's instructions. Briefly, mice were anesthetized using isoflurane in oxygen, and placed supine on a heated stage. Mice were then administered D-luciferin (Perkin-Elmer #122799) IP, and BLI was performed.
Adult female BALB/C mice (n=3/group) were intravenously administered 0.5 mg/kg of 5′-CleanCap-fLuciferase mRNA (TriLink Biotech) formulated with the LNP compositions shown in Table 25. One group of mice was treated with vehicle (PBS, Thermo Fisher Scientific, USA) as a negative control. […]

[1] = Body weight change of mice after LNP administration; type: in vivo, BALB/C mice; settings: for Ave weight change (gram) n = 3: 24 hrs after 0.5 mg/kg LNP encapsulating firefly luciferase mRNA, adult female BALB/C mice
Experimental: The mice above were also monitored for changes in body weight after LNP delivery. Mice were manually weighed on a scale before LNP dosage and then weighed 24 hrs after administration of 0.5 mg/kg of LNP article encapsulating Cleancap firefly luciferase mRNA. The average of weight change n=3 is reported below.
In addition, the body weight of mice treated with the LNP compositions of Table 25 was assessed prior to intravenous administration and twenty-four hours post-administration and the body weights at baseline and post-treatment were compared. The average percentage of body weight change for each group of mice treated with each LNP composition of Table 25 is shown in Table 28. […]

[2] = Physical characteristics of LNPs (particle size, PDI); type: physicochemical; settings: for PDI DNA / Particle Size (nm) DNA: LNP with Fluc DNA, compound/DOPE/Cholesterol/DMG-PEG2000 38/50/10.0/2.0, Lipid:DNA 45:1 (w/w); for PDI RNA / Particle Size (nm) RNA: LNP with Fluc mRNA, compound/DOPE/Cholesterol/DMG-PEG2000 41.44/45.85/10/2.7, Lipid:RNA 40:1 (w/w)
Experimental: LNP compositions of the present disclosure comprising exemplary compounds of Formula (I) were prepared by combining various percentages of an exemplary compound of Formula (I), the phospholipid DOPE, the structural lipid cholesterol (Chol) and 1,2-dimyristoyl-sn-glycerol methoxypolyethylene glycol (DMG-PEG2000; Avanti Polar Lipids, Alabaster, Alabama, USA).
Individual 25 mg/ml stock solutions were prepared by solubilizing the lipids in 200-proof HPLC-grade ethanol and stock solutions were stored at −80° C. until formulated. At the time of formulation, the lipid stock solutions were briefly allowed to equilibrate to room temp and then placed on a hot plate maintained at a temperature range of 50-55° C.
A 1 mg/ml solution of the desired mRNA or DNA to be incorporated into the LNPs was added to 150 mM sodium acetate buffer (pH 5.2) to form a stock solution and kept on ice. The aqueous mRNA or DNA was then added to the lipids as shown in Table 4 or 5 and hand-mixed vigorously with a single channel pipettor.
The resultant mRNA or DNA LNP compositions were then transferred to a Repligen Float-A-Lyzer dialysis device-having a molecular weight cut off (MWCO) of 8-10 kDa (Spectrum Chemical Mfg. Corp, CA, USA) and processed by dialysis against phosphate buffered saline (PBS) (dialysate: dialysis buffer volume at least 1:200 v/v), pH 7.4 overnight at 4° C. (or alternatively room temperature for at least 4 hours), to remove the 25% ethanol and achieve a complete buffer exchange. In some experiments the LNPs were further concentrated by in an Amicon® Ultra-4 centrifugal filter unit, MWCO-30 kDa (Millipore Sigma, USA) spun at ˜4100 x g in an ultracentrifuge. The mRNA and DNA LNPs were then stored at 4° C. until further use.
LNP compositions of the present disclosure comprising mRNA or DNA encoding firefly luciferase (hereafter “Fluc”; TriLink) and COMPOUNDS 5-49 were prepared as described in Example 61 by combining one of COMPOUNDS 5-49, the phospholipid DOPE, the structural lipid cholesterol (Chol) and 1,2-dimyristoyl-sn-glycerol methoxypolyethylene glycol (DMG-PEG2000) in the percentages presented in Tables 6 and 7:
The physical characteristics of the resulting LNPs were analyzed.
A 1 mg/ml solution of the 5′-CleanCap--fLuciferase mRNA (TriLink Biotech) to be incorporated into the LNPs was added to 150 mM sodium acetate buffer (pH 5.2) to form a stock solution and kept on ice. The lipid phase was mixed with the aqueous mRNA phase inside a microfluidic chip using a NanoAssemblr® instrument (Precision Nanosystems, Vancouver, BC, Canada) according to the manufacturer's instructions to form LNP compositions comprising encapsulated mRNAs.
The average particle size diameter of the LNPs was approximately 75-150 nm.

| Compound | Ave flux (p/s) n = 3 (liver cells) [p/s] | Ave weight change (gram) n = 3 [1] [gram] | PDI DNA [2] | Particle Size (nm) DNA [2] [nm] | PDI RNA [2] | Particle Size (nm) RNA [2] [nm] | Mean Liver Luciferase Flux (p/s) (liver cells; LNP compositions of Table 25, adult female BALB/C, n=3) | % Body Weight Change 24 hr ([1]; LNP compositions of Table 25, 0.5 mg/kg fLuciferase mRNA i.v., 24 hr post-administration vs baseline) |
| --- | --- | --- | --- | --- | --- | --- | --- | --- |
| CC(C)=CCC/C(C)=C/CCC1=CCC(C(=O)OCCOC(=O)CCN(CCC(=O)OCCOC(=O)C2CC=C(CC/C=C(\C)CCC=C(C)C)CC2)CC(C)N(CCC(=O)OCCOC(=O)C2CC=C(CC/C=C(\C)CCC=C(C)C)CC2)CCC(=O)OCCOC(=O)C2CC=C(CC/C=C(\C)CCC=C(C)C)CC2)CC1 (centres unmarked) [Compound 8] | 1.10E+07 | −2.53 | 0.167 | 319.6 | 0.073 | 312.8 | – | – |
| CC(C)=CCC/C(C)=C/CCC1=CCC(C(=O)OCCOC(=O)CCN(CCCN2CCN(CCCN(CCC(=O)OCCOC(=O)C3CC=C(CC/C=C(\C)CCC=C(C)C)CC3)CCC(=O)OCCOC(=O)C3CC=C(CC/C=C(\C)CCC=C(C)C)CC3)CC2)CCC(=O)OCCOC(=O)C2CC=C(CC/C=C(\C)CCC=C(C)C)CC2)CC1 (centres unmarked) [Compound 9, ((3,3′,3″,3′″-((piperazine-1,4-diylbis(propane-3,1-diyl))bis(azanetriyl))tetrakis(propanoyl))tetrakis(oxy))tetrakis(ethane-2,1-diyl)tetrakis(4-((E)-4,8-dimethylnona-3,7-dien-1-yl)cyclohex-3-enecarboxylate)] | 1.77E+10 | −3.03 | 0.123 | 330.9 | 0.129 | 314.0 | 4.62e10 | +1.4% |
| CC(C)CCCC(C)CCCC1CCC(C(=O)OCCOC(=O)CCN(CCCN(C)CCCN(CCC(=O)OCCOC(=O)C2CCC(CCCC(C)CCCC(C)C)CC2)CCC(=O)OCCOC(=O)C2CCC(CCCC(C)CCCC(C)C)CC2)CCC(=O)OCCOC(=O)C2CCC(CCCC(C)CCCC(C)C)CC2)CC1 (centres unmarked) [Compound 17] | 2.96E+10 | −3.10 | 0.129 | 287.7 | 0.145 | 293.3 | – | – |
| CC(C)=CCCC1=CCC(C(=O)OCCOC(=O)CCN(CCCN(C)C)CCC(=O)OCCOC(=O)C2CC=C(CCC=C(C)C)CC2)CC1 (centres unmarked) [Compound 19, ((3,3′-((3-(dimethylamino)propyl)azanediyl)bis(propanoyl))bis(oxy))bis(ethane-2,1-diyl)bis(4-(4-methylpent-3-en-1-yl)cyclohex-3-enecarboxylate)] | 1.10E+06 | 0.70 | 0.131 | 213.9 | 0.133 | 220.1 | – | – |
| CC(C)=CCC/C(C)=C/CCC1=CCC(C(=O)OCCN(CCOC(=O)C2CC=C(CC/C=C(\C)CCC=C(C)C)CC2)C(C)(C)C)CC1 (centres unmarked) [Compound 35] | – | – | 0.129 | 298.2 | 0.149 | 364.7 | – | – |
| CC(C)=CCC/C(C)=C/CCC1=CCC(C(=O)OCCN2CCN(CCOC(=O)C3CC=C(CC/C=C(\C)CCC=C(C)C)CC3)CC2)CC1 (centres unmarked) [Compound 36] | – | – | 0.091 | 286.1 | 0.09 | 260.6 | – | – |
| CC(C)=CCC/C(C)=C/CCC1=CCC(C(=O)OCCOC(=O)CN(C)CC(=O)OCCOC(=O)C2CC=C(CC/C=C(\C)CCC=C(C)C)CC2)CC1 (centres unmarked) [Compound 37] | – | – | 0.165 | 337.2 | 0.091 | 356.2 | – | – |
| CC(C)=CCC/C(C)=C/CCC1=CCC(C(=O)OCCN(CCOC(=O)C2CC=C(CC/C=C(\C)CCC=C(C)C)CC2)CCOC(=O)C2CC=C(CC/C=C(\C)CCC=C(C)C)CC2)CC1 (centres unmarked) [Compound 38] | – | – | 0.208 | 398.8 | 0.128 | 359.7 | – | – |
| CC(C)=CCC/C(C)=C/CCC1=CCC(C(=O)CCCN(CCO)CCOC(=O)C2CC=C(CC/C=C(\C)CCC=C(C)C)CC2)CC1 (centres unmarked) [Compound 39] | – | – | 0.138 | 272.5 | 0.064 | 297.1 | – | – |
| CC(C)=CCC/C(C)=C/CCC1=CCC(C(=O)OCCN(C)CCO)CC1 (centres unmarked) [Compound 40] | – | – | 0.146 | 251.2 | 0.179 | 255.5 | – | – |
| CCCCCCCC/C=C\CCCCCCCC(=O)OCCN(C)CCOC(=O)C1CC=C(CC/C=C(\C)CCC=C(C)C)CC1 (centres unmarked) [Compound 41] | – | – | 0.085 | 295.1 | 0.057 | 306.1 | – | – |
| CC(C)=CCCC1=CCC(C(=O)OCCN(C)CCOC(=O)C2CC=C(CCC=C(C)C)CC2)CC1 (centres unmarked) [Compound 42] | – | – | 0.039 | 289.2 | 0.121 | 304.2 | – | – |
| CCN(CCOC(=O)C1CC=C(CCC=C(C)C)CC1)CCOC(=O)C1CC=C(CCC=C(C)C)CC1 (centres unmarked) [Compound 43] | – | – | 0.185 | 286.7 | 0.079 | 310.1 | – | – |
| CCCCN(CCOC(=O)C1CC=C(CCC=C(C)C)CC1)CCOC(=O)C1CC=C(CCC=C(C)C)CC1 (centres unmarked) [Compound 44] | – | – | 0.102 | 270 | 0.09 | 329 | – | – |
| CC(C)=CCCC1=CCC(C(=O)OCCN(CCOC(=O)C2CC=C(CCC=C(C)C)CC2)C(C)(C)C)CC1 (centres unmarked) [Compound 45] | – | – | 0.082 | 340.4 | 0.131 | 356.1 | – | – |
| CC(C)=CCCC1=CCC(C(=O)OCCN2CCN(CCOC(=O)C3CC=C(CCC=C(C)C)CC3)CC2)CC1 (centres unmarked) [Compound 46] | – | – | 0.116 | 309 | 0.078 | 334.6 | – | – |
| CC(C)=CCCC1=CCC(C(=O)OCCOC(=O)CN(C)CC(=O)OCCOC(=O)C2CC=C(CCC=C(C)C)CC2)CC1 (centres unmarked) [Compound 47] | – | – | 0.223 | 357.6 | 0.122 | 363.7 | – | – |
| CC(C)=CCCC1=CCC(C(=O)OCCN(CCOC(=O)C2CC=C(CCC=C(C)C)CC2)CCOC(=O)C2CC=C(CCC=C(C)C)CC2)CC1 (centres unmarked) [Compound 48] | – | – | 0.202 | 291.3 | 0.088 | 324.9 | – | – |
| CC(C)=CCCC1=CCC(C(=O)OCCN(CCO)CCOC(=O)C2CC=C(CCC=C(C)C)CC2)CC1 (centres unmarked) [Compound 49] | – | – | 0.104 | 308.7 | 0.045 | 245.3 | – | – |
